Key:
Experiment in all cases: relative viability (nuclei count vs DMSO), 5 days (fraction); higher = more cells survive
[1] = compound: COc1cc2nc(N3CCCN(C)CC3)nc(NC3CCN(Cc4ccccc4)CC3)c2cc1OC + Cc1cc(Nc2cc(N3CCN(C)CC3)nc(Sc3ccc(NC(=O)C4CC4)cc3)n2)n[nH]1 [Tozasertib] (partner 0.1 µM)
Procedure, shortened: (§1)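 Relative viability was taken as the ratio of nuclei in treated wells to nuclei in vehicle wells. Lung cancer cell lines in 1536-well plates received compounds by pin tool one day after seeding, either one drug alone or a fixed anchor-drug dose plus five library-drug doses (not always all listed) in √10 steps. Nuclei were counted on 4× images after 5 days of treatment, and values are medians of duplicate plates.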

[2] = compound: COc1cc2nc(N3CCCN(C)CC3)nc(NC3CCN(Cc4ccccc4)CC3)c2cc1OC + NC(=O)Nc1cc(-c2cccc(F)c2)sc1C(=O)N[C@H]1CCCNC1 [AZD7762] (partner 0.2 µM)
Procedure, shortened: as §1

[3] = compound: COc1cc2nc(N3CCCN(C)CC3)nc(NC3CCN(Cc4ccccc4)CC3)c2cc1OC + Nc1nc2[nH]cc(CCc3ccc(C(=O)N[C@@H](CCC(=O)O)C(=O)O)cc3)c2c(=O)[nH]1 [Pemetrexed] (partner 0.2 µM)
Procedure, shortened: as §1

AZD6482 + Phenformin = compound: Cc1cc([C@@H](C)Nc2ccccc2C(=O)O)c2nc(N3CCOCC3)cc(=O)n2c1 [AZD6482] + N=C(N)NC(=N)NCCc1ccccc1 [Phenformin] (partner 250 µM)
Procedure, shortened: as §1

| Cell Line | relative viability ([1]; first compound 0.2 µM) | relative viability ([1]; first compound 0.6325 µM) | relative viability ([1]; first compound 2 µM) | relative viability ([1]; first compound 6.325 µM) | relative viability ([2]; first compound 0.2 µM) | relative viability ([2]; first compound 0.6325 µM) | relative viability ([2]; first compound 2 µM) | relative viability ([2]; first compound 6.325 µM) | relative viability ([3]; first compound 0.2 µM) | relative viability ([3]; first compound 0.6325 µM) | relative viability ([3]; first compound 2 µM) | relative viability ([3]; first compound 6.325 µM) | relative viability (AZD6482 + Phenformin; first compound 0.08 µM) | relative viability (AZD6482 + Phenformin; first compound 0.253 µM) | relative viability (AZD6482 + Phenformin; first compound 0.8 µM) | relative viability (AZD6482 + Phenformin; first compound 2.53 µM) | relative viability (AZD6482 + Phenformin; first compound 8 µM) |
| --- | --- | --- | --- | --- | --- | --- | --- | --- | --- | --- | --- | --- | --- | --- | --- | --- | --- |
| NCI-H1666 | 0.569 | 0.727 | 0.635 | 0.625 | 0.901 | 0.809 | 0.76 | 0.746 | 0.885 | 0.785 | 0.766 | 0.872 | 0.532 | 0.548 | 0.582 | 0.525 | 0.577 |
| NCI-H1734 | 0.277 | 0.249 | 0.26 | 0.217 | 0.551 | 0.505 | 0.502 | 0.724 | 0.405 | 0.414 | 0.401 | 0.424 | 0.386 | 0.333 | 0.465 | 0.229 | 0.226 |
| NCI-H1755 | 0.668 | 0.464 | 0.592 | 0.557 | 0.501 | 0.386 | 0.461 | 0.477 | 0.459 | 0.415 | 0.414 | 0.368 | 0.525 | 0.576 | 0.542 | 0.427 | 0.41 |
| NCI-H1793 | 0.338 | 0.386 | 0.359 | 0.322 | 0.43 | 0.617 | 0.357 | 0.432 | 0.919 | 1.19 | 0.945 | 0.797 | 0.338 | 0.311 | 0.24 | 0.191 | 0.15 |
| NCI-H1915 | 0.441 | 0.465 | 0.464 | 0.426 | 0.698 | 0.586 | 0.72 | 0.764 | 0.48 | 0.442 | 0.503 | 0.463 | 0.379 | 0.334 | 0.384 | 0.326 | 0.357 |
| NCI-H1944 | 0.248 | 0.277 | 0.268 | 0.28 | 0.534 | 0.476 | 0.487 | 0.51 | 0.598 | 0.684 | 0.566 | 0.587 | 0.216 | 0.193 | 0.19 | 0.154 | 0.153 |
| NCI-H1975 | 0.797 | 0.804 | 0.999 | 0.832 | 0.78 | 0.813 | 0.805 | 0.775 | 0.289 | 0.301 | 0.309 | 0.267 | 0.373 | 0.383 | 0.401 | 0.283 | 0.232 |
| NCI-H1993 | 0.583 | 0.622 | 0.604 | 0.625 | 0.73 | 0.844 | 0.816 | 0.826 | 0.602 | 0.644 | 0.579 | 0.549 | 0.49 | 0.488 | 0.471 | 0.524 | 0.449 |
| NCI-H2085 | 0.884 | 0.895 | 0.971 | 0.612 | 0.992 | 0.992 | 1.09 | 0.947 | 0.827 | 1.02 | 0.943 | 0.87 | 0.483 | 0.448 | 0.406 | 0.318 | 0.29 |
| NCI-H2087 | 0.228 | 0.269 | 0.292 | 0.304 | 1.48 | 1.18 | 1.46 | 1.22 | 0.663 | 0.622 | 0.686 | 0.656 | 0.44 | 0.442 | 0.474 |  | 0.385 |
| NCI-H2126 | 0.818 | 0.874 | 0.868 | 0.826 | 1.04 | 1.02 | 1.04 | 0.982 | 0.74 | 0.623 | 0.637 | 0.644 | 0.507 | 0.521 | 0.451 | 0.355 | 0.349 |
| NCI-H2170 | 0.696 | 0.703 | 0.788 | 0.752 | 0.936 | 0.809 | 0.892 | 0.833 | 0.256 | 0.26 | 0.271 | 0.274 | 0.418 | 0.432 | 0.421 | 0.386 | 0.36 |
| NCI-H2342 | 0.503 | 0.659 | 0.57 | 0.511 | 0.472 | 0.748 | 0.652 | 0.497 | 0.81 | 0.742 | 0.741 | 0.761 | 0.517 | 0.569 | 0.682 | 0.373 | 0.429 |
| NCI-H2347 | 0.568 | 0.604 | 0.743 | 0.64 | 0.697 | 0.714 | 0.839 | 0.76 | 0.394 | 0.4 | 0.494 | 0.538 | 0.198 | 0.277 | 0.235 | 0.243 | 0.221 |
| NCI-H2405 | 0.711 | 0.696 | 0.83 | 0.74 | 0.671 | 0.792 | 0.829 | 0.973 | 1.02 | 1.12 | 1.11 | 1.05 | 0.274 |  | 0.346 | 0.309 | 0.274 |
| NCI-H3122 | 0.429 | 0.413 | 0.543 | 0.536 | 1.1 | 0.918 | 1.02 | 0.983 | 0.206 | 0.198 | 0.19 | 0.2 | 0.385 | 0.381 | 0.371 |  | 0.412 |
| PC-3 [JPC-3] | 0.932 | 0.915 | 0.938 | 0.88 | 0.692 | 1.06 | 0.874 | 0.685 | 0.972 | 1.15 | 1.11 | 1.01 | 0.418 | 0.492 | 0.508 | 0.406 | 0.391 |
| PC-14 | 0.587 | 0.61 | 0.64 | 0.505 | 0.343 | 0.382 | 0.357 | 0.257 | 0.133 | 0.153 | 0.118 | 0.0737 | 0.488 | 0.438 | 0.59 |  | 0.534 |
| RERF-LC-KJ | 0.508 | 0.523 | 0.47 | 0.417 | 1.03 | 0.932 | 0.999 | 0.888 | 0.419 | 0.455 | 0.464 | 0.447 | 0.424 | 0.401 | 0.368 | 0.394 | 0.292 |

From the supplement of paper PMC10307832
